Reference: patent US20240034736A1, “HSD17B13 INHIBITORS AND USES THEREOF” (FL2022-001, Inc., priority 2020, published 2024)

Target: Recombinant human HSD17B13 enzyme (Homo sapiens (Human), UniProt Q7Z5P4)
Experiment: HSD17b13 NAD(P)H-Glo Biochemical Assay
Conditions: 50 uM estradiol, 1 mM NAD+; read-out: HSD17β13 IC50
Description: Recombinant human HSD17B13 enzyme. Substrate: estradiol (Sigma β-Estradiol E8875), 100 mM in DMSO. […] Assay buffer final concentration: 20 mM Tris pH7.4 with 0.002% Tween-20 and 0.02% BSA. […] Enzymatic activity detected by NAD(P)H-Glo™ Detection System (Promega G9062).
Inhibitor compounds were serially diluted in DMSO and then further diluted in assay buffer to a 10× concentration consisting of 1% DMSO.
HSD17b13 enzyme was diluted in 1× assay buffer to the desired enzyme concentration based on the specific activity of the enzyme lot. 20 uL of diluted enzyme was added to each well along with 2.5 uL of 10× inhibitor solution. Assay plate was incubated at RT for 20 minutes, and then 2.5 uL of a 10× substrate/cofactor mix was added to each well for a final concentration of 50 uM estradiol and 1 mMNAD+. Assay plate was incubated at 37° C. for 3 hours. NAD(P)H-Glo™ Detection System reagents were prepared according to manufacturer's specifications, and 25 uL was added to each well. After incubating for 1 hour at RT, luminescence was measured.

Chain of Recombinant human HSD17B13 enzyme (Q7Z5P4 20-300): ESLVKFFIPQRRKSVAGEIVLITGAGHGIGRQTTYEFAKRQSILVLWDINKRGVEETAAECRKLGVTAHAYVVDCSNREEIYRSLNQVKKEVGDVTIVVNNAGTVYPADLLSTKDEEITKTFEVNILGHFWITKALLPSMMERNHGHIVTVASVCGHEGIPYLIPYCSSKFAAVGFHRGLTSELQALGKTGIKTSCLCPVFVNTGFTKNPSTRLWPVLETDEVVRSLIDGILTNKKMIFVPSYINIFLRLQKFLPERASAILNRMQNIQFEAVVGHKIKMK

SMILES	IC50
Oc1ccc(F)c(-n2ncc3cc(-c4ccc(O)c(Cl)c4)ccc32)c1 [Compound 1, 2-Chloro-4-(1-(2-fluoro-5-hydroxyphenyl)-1H-indazol-5-yl)phenol]	1000 to 30000 nM
Oc1cc(-n2ncc3cc(-c4cccc(Cl)c4)ccc32)ccc1F [Compound 1.01, 5-(5-(3-Chlorophenyl)-1H-indazol-1-yl)-2-fluorophenol]	100 to 1000 nM
COc1ccc(-c2ccc3c(cnn3-c3cc(O)c(F)c(C(F)(F)F)c3)c2)cc1Cl [Compound 1.02, 5-(5-(3-Chloro-4-methoxyphenyl)-1H-indazol-1-yl)-2-fluoro-3-(trifluoromethyl)phenol]	100 to 1000 nM
COc1ccc(-c2ccc3c(cnn3-c3cc(O)c(F)c(F)c3F)c2)cc1Cl [Compound 1.03, 5-(5-(3-Chloro-4-methoxyphenyl)-1H-indazol-1-yl)-2,3,4-trifluorophenol]	100 to 1000 nM
Oc1ccc(-c2ccc3c(cnn3-c3cc(O)c(F)c(C(F)(F)F)c3)c2)cc1Cl [Compound 1.04, 5-(5-(3-Chloro-4-hydroxyphenyl)-1H-indazol-1-yl)-2-fluoro-3-(trifluoromethyl)phenol]	< 100 nM
Oc1ccc(-c2ccc3c(cnn3-c3cc(O)c(F)c(F)c3F)c2)cc1Cl [Compound 1.05, 5-(5-(3-Chloro-4-hydroxyphenyl)-1H-indazol-1-yl)-2,3,4-trifluorophenol]	100 to 1000 nM
Oc1cc(-n2ccc3cc(-c4ccc(O)c(Cl)c4)ccc32)ccc1F [Compound 1.06, 2-Chloro-4-(1-(4-fluoro-3-hydroxyphenyl)-1H-indol-5-yl)phenol]	100 to 1000 nM
COc1ccc(-c2ccc3c(cnn3-c3ccc(F)c(O)c3)c2)cc1Cl [Compound 2, 5-(5-(3-Chloro-4-methoxyphenyl)-1H-indazol-1-yl)-2-fluorophenol]	100 to 1000 nM
O=C(O)Cc1ccc(-c2ccc3c(cnn3-c3ccc(F)c(O)c3)c2)cc1 [Compound 2.01, 2-(4-(1-(4-Fluoro-3-hydroxyphenyl)-1H-indazol-5-yl)phenyl)acetic acid]	1000 to 30000 nM
Oc1cc(F)cc(-n2ncc3cc(-c4ccc(O)c(Cl)c4)ccc32)c1 [Compound 3, 2-Chloro-4-(1-(3-fluoro-5-hydroxyphenyl)-1H-indazol-5-yl)phenol]	1000 to 30000 nM
Oc1ccc(-c2ccc3c(cnn3-c3cccc(O)c3F)c2)cc1Cl [Compound 3.01, 3-(5-(3-Chloro-4-hydroxyphenyl)-1H-indazol-1-yl)-2-fluorophenol]	100 to 1000 nM
Oc1ccc(-c2ccc3c(cnn3-c3ccc(C(F)(F)F)c(O)c3)c2)cc1Cl [Compound 3.02, 2-Chloro-4-(1-(3-hydroxy-4-(trifluoromethyl)phenyl)-1H-indazol-5-yl)phenol]	1000 to 30000 nM
Oc1ccc(-c2ccc3c(cnn3-c3cc(O)c(F)c(F)c3)c2)cc1Cl [Compound 3.03, 5-(5-(3-Chloro-4-hydroxyphenyl)-1H-indazol-1-yl)-2,3-difluorophenol]	100 to 1000 nM
Oc1cc(-n2ncc3cc(-c4ccc(O)c(Cl)c4)ccc32)cc(C(F)(F)F)c1 [Compound 3.04, 2-Chloro-4-(1-(3-hydroxy-5-(trifluoromethyl)phenyl)-1H-indazol-5-yl)phenol]	100 to 1000 nM
Oc1cccc(-n2ncc3cc(-c4ccc(O)c(Cl)c4)ccc32)c1 [Compound 3.05, 2-Chloro-4-(1-(3-hydroxyphenyl)-1H-indazol-5-yl)phenol]	1000 to 30000 nM
Oc1cc(-n2ncc3cc(-c4ccc(O)c(Cl)c4)ccc32)ccc1F [Compound 4, 2-Chloro-4-(1-(4-fluoro-3-hydroxyphenyl)-1H-indazol-5-yl)phenol]	100 to 1000 nM
Oc1ccc(-c2ccc3c(cnn3-c3ccc(F)c(O)c3)c2)cc1 [Compound 4.01, 2-Fluoro-5-(5-(4-hydroxyphenyl)-1H-indazol-1-yl)phenol]	100 to 1000 nM
CS(=O)(=O)Nc1ccc(-c2ccc3c(cnn3-c3ccc(F)c(O)c3)c2)cc1 [Compound 4.02, N-(4-(1-(4-Fluoro-3-hydroxyphenyl)-1H-indazol-5-yl)phenyl)methanesulfonamide]	100 to 1000 nM
Oc1cccc(-c2ccc3c(cnn3-c3ccc(F)c(O)c3)c2)c1 [Compound 4.03, 2-Fluoro-5-(5-(3-hydroxyphenyl)-1H-indazol-1-yl)phenol]	100 to 1000 nM
CS(=O)(=O)Nc1cccc(-c2ccc3c(cnn3-c3ccc(F)c(O)c3)c2)c1 [Compound 4.04, N-(3-(1-(4-Fluoro-3-hydroxyphenyl)-1H-indazol-5-yl)phenyl)methanesulfonamide]	1000 to 30000 nM
Cc1nn(-c2ccc(F)c(O)c2)c2ccc(-c3ccc(O)c(Cl)c3)cc12 [Compound 4.05, 2-Chloro-4-(1-(4-fluoro-3-hydroxyphenyl)-3-methyl-1H-indazol-5-yl)phenol]	100 to 1000 nM
Oc1cc(-n2cc3cc(-c4ccc(O)c(Cl)c4)ccc3n2)ccc1F [Compound 4.06, 2-Chloro-4-(2-(4-fluoro-3-hydroxyphenyl)-2H-indazol-5-yl)phenol]	100 to 1000 nM

SMILES	IC50
Cc1ccc(-c2ccc3c(cnn3-c3ccc(F)c(O)c3)c2)cc1 [Compound 4.07, 2-Fluoro-5-(5-(p-tolyl)-1H-indazol-1-yl)phenol]	100 to 1000 nM
Cc1cccc(-c2ccc3c(cnn3-c3ccc(F)c(O)c3)c2)c1 [Compound 4.08, 2-Fluoro-5-(5-(m-tolyl)-1H-indazol-1-yl)phenol]	1000 to 30000 nM
Oc1cc(-n2ncc3cc(-c4ccc(Cl)cc4)ccc32)ccc1F [Compound 4.09, 5-(5-(4-Chlorophenyl)-1H-indazol-1-yl)-2-fluorophenol]	100 to 1000 nM
Oc1ccc(-c2ccc3c(cnn3-c3cc(O)c(F)c(F)c3)c2)c(Cl)c1 [Compound 4.10, 5-(5-(2-Chloro-4-hydroxyphenyl)-1H-indazol-1-yl)-2,3-difluorophenol]	100 to 1000 nM
Oc1cc(-n2ncc3cc(-c4ccccc4Cl)ccc32)ccc1F [Compound 4.11, 5-(5-(2-Chlorophenyl)-1H-indazol-1-yl)-2-fluorophenol]	100 to 1000 nM
Cc1ccccc1-c1ccc2c(cnn2-c2ccc(F)c(O)c2)c1 [Compound 4.12, 2-Fluoro-5-(5-(o-tolyl)-1H-indazol-1-yl)phenol]	100 to 1000 nM
Oc1cc(-n2ncc3cc(-c4ccc(O)c(Cl)c4)ncc32)ccc1F [Compound 4.13, 2-Chloro-4-(1-(4-fluoro-3-hydroxyphenyl)-1H-pyrazolo[3,4-c]pyridine-5-yl)phenol]	100 to 1000 nM
Oc1cc(-n2nc(Cl)c3cc(-c4ccc(O)c(Cl)c4)ccc32)ccc1F [Compound 4.14, 2-Chloro-4-(3-chloro-1-(4-fluoro-3-hydroxyphenyl)-1H-indazol-5-yl)phenol]	100 to 1000 nM
N#Cc1nn(-c2ccc(F)c(O)c2)c2ccc(-c3ccc(O)c(Cl)c3)cc12 [Compound 4.15, 5-(3-Chloro-4-hydroxyphenyl)-1-(4-fluoro-3-hydroxyphenyl)-1H-indazole-3-carbonitrile]	100 to 1000 nM
Oc1ccc(-c2cc3cnn(-c4cc(O)c(F)c(F)c4)c3cc2Cl)cc1Cl [Compound 4.16, 5-(6-Chloro-5-(3-chloro-4-hydroxyphenyl)-1H-indazol-1-yl)-2,3-difluorophenol]	100 to 1000 nM
Oc1ccc(-c2cc3cnn(-c4cc(O)c(F)c(F)c4)c3cc2Cl)c(Cl)c1 [Compound 4.17, 5-(6-Chloro-5-(2-chloro-4-hydroxyphenyl)-1H-indazol-1-yl)-2,3-difluorophenol]	100 to 1000 nM
Oc1cc(-n2ncc3cc(-c4ccc(O)c(Cl)c4)ccc32)ccc1F [Compound 5, 2-Chloro-4-(1-(4-fluoro-3-hydroxyphenyl)-1H-indazol-5-yl)phenol]	100 to 1000 nM
Oc1cc(-n2ncc3cc(-c4ccc(Cl)c(O)c4)ccc32)ccc1F [Compound 5.01, 2-Chloro-5-(1-(4-fluoro-3-hydroxyphenyl)-1H-indazol-5-yl)phenol]	100 to 1000 nM
Cc1cc(-c2ccc3c(cnn3-c3ccc(F)c(O)c3)c2)ccc1O [Compound 5.02, 4-(1-(4-Fluoro-3-hydroxyphenyl)-1H-indazol-5-yl)-2-methylphenol]	100 to 1000 nM
COc1ccc(-c2ccc3c(cnn3-c3ccc(F)c(O)c3)c2)c(Cl)c1 [Compound 5.03, 5-(5-(2-Chloro-4-methoxyphenyl)-1H-indazol-1-yl)-2-fluorophenol]	100 to 1000 nM
NS(=O)(=O)c1ccc(-c2ccc3c(cnn3-c3ccc(F)c(O)c3)c2)cc1 [Compound 5.04, 4-(1-(4-Fluoro-3-hydroxyphenyl)-1H-indazol-5-yl)benzenesulfonamide]	100 to 1000 nM
CS(=O)(=O)c1ccc(-c2ccc3c(cnn3-c3ccc(F)c(O)c3)c2)cc1 [Compound 5.05, 2-Fluoro-5-(5-(4-(methylsulfonyl)phenyl)-1H-indazol-1-yl)phenol]	100 to 1000 nM
Oc1cc(-n2ncc3cc(-c4ccc(OC(F)(F)F)cc4Cl)ccc32)ccc1F [Compound 5.06, 5-(5-(2-Chloro-4-(trifluoromethoxy)phenyl)-1H-indazol-1-yl)-2-fluorophenol]	100 to 1000 nM
N#Cc1cc(O)ccc1-c1ccc2c(cnn2-c2ccc(F)c(O)c2)c1 [Compound 5.07, 2-(1-(4-Fluoro-3-hydroxyphenyl)-1H-indazol-5-yl)-5-hydroxybenzonitrile]	100 to 1000 nM
Oc1cc(-n2ncc3cc(-c4ccc(OC(F)F)cc4Cl)ccc32)ccc1F [Compound 5.08, 5-(5-(2-Chloro-4-(difluoromethoxy)phenyl)-1H-indazol-1-yl)-2-fluorophenol]	100 to 1000 nM
Oc1cc(-n2ncc3cc(-c4ccc(N5CCOCC5)cc4Cl)ccc32)ccc1F [Compound 5.09, 5-(5-(2-Chloro-4-morpholinophenyl)-1H-indazol-1-yl)-2-fluorophenol]	1000 to 30000 nM
